Patent US20250059220A1, “SUBSTITUTED BENZOTHIOPHENE DERIVATIVES AND METHODS OF USE THEREOF” (Merck Sharp & Dohme LLC, priority 2021, published 2025)

How the values were obtained:
human PTPN2 (1-387) = human PTPN2 (1-387) (Homo sapiens (Human), UniProt P17706); test: Human PTPN2 Biochemical Assay; details: DiFMUP substrate
Description: Human PTPN2 Biochemical Assay
Test compounds were dissolved in DMSO, and 10-point serial 3-fold dilution series in DMSO were prepared in Echo Qualified 384-well Polypropylene Microplates (Labcyte, San Jose, CA) (top concentration 50 µM). Assay plates (384-well low volume black plates; Corning #3820, Corning, NY) were prepared by dispensing 50 nL of test compound, and DMSO (for high and low controls) by ECHO acoustic dispenser (Labcyte, San Jose CA). This was followed by addition of 5 μL of 0.2 nM human PTPN2 (1-387) solution (prepared in the assay buffer, 50 mM Tris pH 7.4, 150 mM NaCl, 0.01% Tween20, 0.5 mM dithiothreitol) to all wells except the low control. 5 μl of assay buffer was added into the low control, then the plate was incubated for 30 minutes at room temperature. Subsequently, 5 μl of 100 µM DiFMUP (6,8-difluoro-4-methylumbelliferyl phosphate) solution (prepared in assay buffer from 10 mM stock in DMSO) was added to the assay plate and incubated for 1 hour at room temperature. For detection, assay plates were read on SpectraMax Microplate Reader (Molecular Devices), with Excitation wavelength=360 nm and Emission wavelength=460 nm. Test compound effects were normalized to the window defined by the controls, DMSO/buffer, and DMSO/50 pM human PTPN2. Calculated % effects were fit using a 4-parameter algorithm, and EC50 was reported.

human PTPN1 (1-435) = human PTPN1 (1-435) (Homo sapiens (Human), UniProt P18031); test: Human PTPN1 Biochemical Assay; details: DiFMUP substrate, read-out: PTP1B IC50
human PTPN1 (1-435), sequence (P18031 whole entry): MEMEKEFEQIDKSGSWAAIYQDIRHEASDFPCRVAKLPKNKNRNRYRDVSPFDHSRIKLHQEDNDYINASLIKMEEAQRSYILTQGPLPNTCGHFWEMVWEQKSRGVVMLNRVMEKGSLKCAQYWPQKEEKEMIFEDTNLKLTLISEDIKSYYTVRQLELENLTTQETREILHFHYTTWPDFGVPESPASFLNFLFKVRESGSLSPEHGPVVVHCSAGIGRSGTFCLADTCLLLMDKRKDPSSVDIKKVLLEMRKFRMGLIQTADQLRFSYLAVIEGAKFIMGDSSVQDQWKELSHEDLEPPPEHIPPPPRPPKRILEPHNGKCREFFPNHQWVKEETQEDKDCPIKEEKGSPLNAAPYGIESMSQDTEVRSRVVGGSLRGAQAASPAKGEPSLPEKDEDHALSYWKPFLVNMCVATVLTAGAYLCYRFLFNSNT
Description: Human PTPN1 Biochemical Assay
Test compounds were dissolved in DMSO, and 10-point serial 3-fold dilution series in DMSO were prepared in Echo Qualified 384-well Polypropylene Microplates (Labcyte, San Jose, CA) (top concentration 50 µM). […] 5 μl of assay buffer was added into the low control. The plate was incubated for 30 minutes at room temperature. Subsequently, 5 μl of 100 µM DiFMUP (6,8-difluoro-4-methylumbelliferyl phosphate) solution (prepared in assay buffer from 10 mM stock in DMSO) was added to the assay plate and incubated for 1 hour at room temperature. For detection, assay plates were read on SpectraMax Microplate Reader (Molecular Devices), with Excitation wavelength=360 nm and Emission wavelength=460 nm. […] Calculated % effects were fit using a 4-parameter algorithm, and EC50 was reported.

human PTPN2 (1-387), sequence (P17706 other isoform, or with tags, fused parts or gaps): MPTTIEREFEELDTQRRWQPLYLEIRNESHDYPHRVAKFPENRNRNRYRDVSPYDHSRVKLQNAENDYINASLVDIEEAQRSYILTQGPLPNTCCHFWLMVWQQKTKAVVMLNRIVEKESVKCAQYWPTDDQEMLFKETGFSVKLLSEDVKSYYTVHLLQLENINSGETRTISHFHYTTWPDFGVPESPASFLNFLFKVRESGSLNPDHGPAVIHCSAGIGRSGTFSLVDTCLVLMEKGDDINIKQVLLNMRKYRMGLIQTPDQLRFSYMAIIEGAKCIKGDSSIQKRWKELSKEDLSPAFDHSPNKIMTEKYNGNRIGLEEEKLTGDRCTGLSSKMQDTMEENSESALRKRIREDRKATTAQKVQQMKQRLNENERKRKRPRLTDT

| SMILES | IC50 (human PTPN2 (1-387)) [µM] | IC50 (human PTPN1 (1-435)) [µM] |
| --- | --- | --- |
| O=C(Nc1ccccc1)c1ccc2sc(C(F)(F)P(=O)(O)O)c(C(F)(F)F)c2c1 [Compound 9, (difluoro(5-(phenylcarbamoyl)-3-(trifluoromethyl)benzo[b]thiophen-2-yl)methyl)phosphonic acid] | 2.13 | 2.2 |
| O=C(NCc1cccnn1)c1cc(OCCCC(F)(F)F)c2sc(C(F)(F)P(=O)(O)O)c(Br)c2c1 [Compound 10, ((3-bromo-5-((pyridazin-3-ylmethyl)carbamoyl)-7-(4,4,4-trifluorobutoxy)benzo[b]thiophen-2-yl)difluoromethyl)phosphonic acid] | 0.00579 | 0.00461 |
| O=C(NCc1cccnc1)c1ccc2sc(C(F)(F)P(=O)(O)O)c(Br)c2c1 [Compound 11] | 3.05 | 2.16 |
| N#CCCNC(=O)c1ccc2sc(C(F)(F)P(=O)(O)O)c(Br)c2c1 [Compound 12] | 8.89 | 5.25 |
| O=C(NC(c1ccccc1F)C(F)(F)F)c1ccc2sc(C(F)(F)P(=O)(O)O)c(Br)c2c1 (centres unmarked) [Compound 13] | 5.3 | 4.11 |
| O=C(N[C@@H]1CCC[C@H]1OCc1ccccc1)c1ccc2sc(C(F)(F)P(=O)(O)O)c(Br)c2c1 [Compound 14] | 4.12 | 2.69 |
| O=C(N[C@H]1Cc2ccc(F)cc21)c1ccc2sc(C(F)(F)P(=O)(O)O)c(Br)c2c1 [Compound 15] | 6.16 | 5.62 |
| O=C(NCC1CC1)c1ccc2sc(C(F)(F)P(=O)(O)O)c(Br)c2c1 [Compound 16] | 7.25 | 5.12 |
| O=C(Nc1cccc(OCC2CCCO2)c1)c1ccc2sc(C(F)(F)P(=O)(O)O)c(Br)c2c1 (centres unmarked) [Compound 17] | 1.91 | 1.46 |
| O=C(Nc1cccc(OC(F)(F)F)c1)c1ccc2sc(C(F)(F)P(=O)(O)O)c(Br)c2c1 [Compound 18] | 2.17 | 1.33 |
| O=C(Nc1ncc(C2CCC2)o1)c1ccc2sc(C(F)(F)P(=O)(O)O)c(Br)c2c1 [Compound 19] | 2.35 | 1.5 |
| CN(C(=O)c1ccc2sc(C(F)(F)P(=O)(O)O)c(Br)c2c1)c1cccc(Oc2ccccc2)c1 [Compound 20] | 6.14 | 4.44 |
| N#CC1(c2ccc(NC(=O)c3ccc4sc(C(F)(F)P(=O)(O)O)c(Br)c4c3)cc2)CCCCC1 [Compound 21] | 2.15 | 1.41 |
| O=C(NCc1cnn2ccccc12)c1ccc2sc(C(F)(F)P(=O)(O)O)c(Br)c2c1 [Compound 22] | 2.59 | 1.99 |
| O=C(Nc1cccnc1Oc1ccccc1)c1ccc2sc(C(F)(F)P(=O)(O)O)c(Br)c2c1 [Compound 23] | 9.28 | 7.25 |
| COc1cccc(NC(=O)c2ccc3sc(C(F)(F)P(=O)(O)O)c(Br)c3c2)c1 [Compound 24] | 2.16 | 1.36 |
| O=C(Nc1ccc(F)cc1)c1ccc2sc(C(F)(F)P(=O)(O)O)c(Br)c2c1 [Compound 25] | 3.17 | 2.57 |
| O=C(Nc1ccc(OCC2CCCO2)cc1)c1ccc2sc(C(F)(F)P(=O)(O)O)c(Br)c2c1 (centres unmarked) [Compound 26] | 2.34 | 1.72 |
| O=C(NC1CC(F)(F)C1)c1ccc2sc(C(F)(F)P(=O)(O)O)c(Br)c2c1 [Compound 27] | 3.23 | 2.19 |
| O=C(NCC1CC(F)(F)C1)c1ccc2sc(C(F)(F)P(=O)(O)O)c(Br)c2c1 [Compound 28] | 6.93 | 5.16 |
| COc1ccc(NC(=O)c2ccc3sc(C(F)(F)P(=O)(O)O)c(Br)c3c2)cc1 [Compound 29] | 3.34 | 2.49 |
| O=C(NCc1cncc(C(F)(F)F)c1)c1ccc2sc(C(F)(F)P(=O)(O)O)c(Br)c2c1 [Compound 30] | 2.09 | 1.84 |
| O=C(Nc1ccccc1F)c1ccc2sc(C(F)(F)P(=O)(O)O)c(Br)c2c1 [Compound 32] | 1.89 | 1.31 |

| SMILES | IC50 (human PTPN2 (1-387)) [µM] | IC50 (human PTPN1 (1-435)) [µM] |
| --- | --- | --- |
| O=C(Nc1cccc(F)c1)c1ccc2sc(C(F)(F)P(=O)(O)O)c(Br)c2c1 [Compound 33] | 1.86 | 2.12 |
| N#CCCCNC(=O)c1ccc2sc(C(F)(F)P(=O)(O)O)c(Br)c2c1 [Compound 34] | 5.86 | 4.48 |
| CC(NC(=O)c1ccc2sc(C(F)(F)P(=O)(O)O)c(Br)c2c1)c1cccnc1 (centres unmarked) [Compound 35] | 7.16 | 6.44 |
| O=C(NC1CCC(F)(F)CC1)c1ccc2sc(C(F)(F)P(=O)(O)O)c(Br)c2c1 [Compound 36] | 3.93 | 2.75 |
| N#CC1CCC(NC(=O)c2ccc3sc(C(F)(F)P(=O)(O)O)c(Br)c3c2)C1 (centres unmarked) [Compound 37] | 3.49 | 2.65 |
| N#CC1(CNC(=O)c2ccc3sc(C(F)(F)P(=O)(O)O)c(Br)c3c2)CC1 [Compound 38] | 4.24 | 3.4 |
| O=C(NC1CC1(F)F)c1ccc2sc(C(F)(F)P(=O)(O)O)c(Br)c2c1 (centres unmarked) [Compound 39] | 3 | 2.27 |
| COC1CC(NC(=O)c2ccc3sc(C(F)(F)P(=O)(O)O)c(Br)c3c2)C1 (centres unmarked) [Compound 40] | 5.78 | 4.2 |
| O=C(NC1CCC(F)(F)C1)c1ccc2sc(C(F)(F)P(=O)(O)O)c(Br)c2c1 (centres unmarked) [Compound 41] | 3.23 | 2.23 |
| O=C(NCc1cncnc1)c1ccc2sc(C(F)(F)P(=O)(O)O)c(Br)c2c1 [Compound 42] | 2.38 | 1.78 |
| Cc1noc(C)c1CCNC(=O)c1ccc2sc(C(F)(F)P(=O)(O)O)c(Br)c2c1 [Compound 43] | 6.53 | 4.9 |
| CS(=O)(=O)N1CCC(NC(=O)c2ccc3sc(C(F)(F)P(=O)(O)O)c(Br)c3c2)CC1 [Compound 44] | 3.06 | 2.47 |
| COCCCCNC(=O)c1ccc2sc(C(F)(F)P(=O)(O)O)c(Br)c2c1 [Compound 45] | 5.17 | 4.08 |
| N#CCCCCNC(=O)c1ccc2sc(C(F)(F)P(=O)(O)O)c(Br)c2c1 [Compound 46] | 8.5 | 6.23 |
| O=C(NCCCC(F)(F)F)c1ccc2sc(C(F)(F)P(=O)(O)O)c(Br)c2c1 [Compound 47] | 4.91 | 4.21 |
| CS(=O)(=O)N1CC2(CC(NC(=O)c3ccc4sc(C(F)(F)P(=O)(O)O)c(Br)c4c3)C2)C1 [Compound 48] | 7.15 | 5.53 |
| O=C(NCC(F)(F)F)c1ccc2sc(C(F)(F)P(=O)(O)O)c(Br)c2c1 [Compound 49] | 5.09 | 4.15 |
| Cc1nn(C)cc1CNC(=O)c1ccc2sc(C(F)(F)P(=O)(O)O)c(Br)c2c1 [Compound 50] | 7.49 | 6.39 |
| O=C(NCc1nnc2n1CCC2)c1ccc2sc(C(F)(F)P(=O)(O)O)c(Br)c2c1 [Compound 51] | 1.35 | 1.11 |
| O=C(N[C@H]1CC[C@H](C(F)(F)F)CC1)c1ccc2sc(C(F)(F)P(=O)(O)O)c(Br)c2c1 [Compound 52] | 6.82 | 5.68 |
| O=C(NCCC1CCCCC1)c1ccc2sc(C(F)(F)P(=O)(O)O)c(Br)c2c1 [Compound 53] | 4.11 | 3.24 |
| O=C(N[C@H]1CC[C@@H](C(F)(F)F)CC1)c1ccc2sc(C(F)(F)P(=O)(O)O)c(Br)c2c1 [Compound 54] | 6.75 | 5.03 |
| CC(C)CNC(=O)c1ccc2sc(C(F)(F)P(=O)(O)O)c(Br)c2c1 [Compound 55] | 9.7 | 7.62 |
